Consider two compounds from US20230134986A1, “GLUCOSE TRIPTOLIDE CONJUGATES AND USES THEREOF” (The Johns Hopkins University, priority 2020, published 2023).

The test system of assay [1] is Airway Epithelial cell. Description: XTT viability assay, airway epithelial cells. Type of assay: cell-based. Conditions: Homo sapiens, Primary normal cells. From the text:
(§1) Cells and culture conditions. Primary astrocytes (Lonza, Walkersville, Md.; ABM™ Basal Media with AGM™ SingleQuots™ Supplement Pack), fibroblast (ATCC; Fibroblast Basal Medium (ATCC© PCS-201-030™) with Fibroblast Growth Kit-Serum-free (ATCC© PCS-201-040™)), airway epithelial cell (ATCC; Airway Epithelial Cell Basal Medium (ATCC© PCS-300-030™) with Bronchial Epithelial Cell Growth Kit (ATCC© PCS-300-040™)), renal proximal tubule (ATCC; Renal Epithelial Cell Basal Medium (ATCC© PCS-400-030™) with Renal Epithelial Cell Growth Kit (ATCC© PCS-400-040™)), prostate epithelial cell (Lonza; PrEGM™ BulletKit™) and mammary epithelial cell (Lonza; MEBM™ BulletKit™) were kept in a humidified incubator at 37° C. adjusted to 5% CO2. […]
(§2) XTT assay. […] Cell viability was measured using the R&D Systemsm TACS XTT Cell Proliferation/Viability Assay (R&D Systems, Minneapolis, Minn.).

In assay [2] the test system is HEK 293T cells. The assay can be described thus: HEK293T cell proliferation assay ([3H]-thymidine incorporation). Type of assay: cell-based, human. The settings on record: for IC50: Homo sapiens, HEK-293T, 24 h, read-out: IC50 ± SEM. From the text: Cells and culture conditions. Primary astrocytes (Lonza, Walkersville, Md.; ABM™ Basal Media with AGM™ SingleQuots™ Supplement Pack), fibroblast (ATCC; Fibroblast Basal Medium (ATCC© PCS-201-030™) with Fibroblast Growth Kit-Serum-free (ATCC© PCS-201-040™)), airway epithelial cell (ATCC; Airway Epithelial Cell Basal Medium (ATCC© PCS-300-030™) with Bronchial Epithelial Cell Growth Kit (ATCC© PCS-300-040™)), renal proximal tubule (ATCC; Renal Epithelial Cell Basal Medium (ATCC© PCS-400-030™) with Renal Epithelial Cell Growth Kit (ATCC© PCS-400-040™)), prostate epithelial cell (Lonza; PrEGM™ BulletKit™) and mammary epithelial cell (Lonza; MEBM™ BulletKit™) were kept in a humidified incubator at 37° C. adjusted to 5% CO2. Prostate (PC3, LNCaP, DU-145), breast (MDA-MB-231, MDA-MB-453, SK-BR-3), head and neck (A253, Detroit 562, SCC-25), melanoma (SK-Mel-3, SK-Mel-1, RPMI-7951), pancreatic (CfPAC-1, BxPC3, SW1990), lung (A549, NCI-H1299, NCI-H1437) and liver (SNU-475, SK-HEP-1, SNU-387) cancer cell lines were obtained from ATCC and cultured in their respective media (prostate cells: RPMI-1640, MDA-MB-231: RPMI-1640, MDA-MB-453: Leibovitz's L-15, SK-BR-3: McCoy's 5a, A253: McCoy's 5a, Detroit 562: EMEM, SCC-25: DMEM, SK-Mel-3: McCoy's 5a, SK-Mel-1: EMEM, RPMI-7951: EMEM), CfPAC-1: IMDM, BxPC3: RPMI-1640, SW1990: Leibovitz's L-15), A549: F-12K, NCI-H1299: RPMI-1640, NCI-H1437: RPMI-1640, SNU-475: RPMI-1640, SK-HEP-1: EMEM, SNU-387: RPMI-1640. All media were supplemented with 10% (vol/vol) filtered fetal bovine serum (FBS, Invitrogen, Carlsbad, Calif.), 1% penicillin/streptomycin (Invitrogen) and maintained in a humidified incubator at 37° C. with 5% CO2 except for MDA-MB-453 and SW1990 grown at 37° C. without CO2 control. Wild type (ATCC) and C342T XPB knock-in cells (named T7115) of Human Embryonic Kidney 293T (HEK293T), HeLa (ATCC) were cultured in DMEM (GIBCO) with 10% (vol/vol) filtered fetal bovine serum (FBS, Invitrogen, Carlsbad, Calif.), 1% penicillin/streptomycin (Invitrogen).
Proliferation and viability assays. [^3H]-thymidine incorporation. HEK293T cells (10,000 cells/well) were seeded into 96-well plates then cultured in DMEM plus 10% FBS and 1% penicillin/streptomycin at 37° C. with 5% CO2 overnight. Drugs were added at indicated concentrations and incubation was continued for an additional 24 h. For hypoxia, PC3 (5,000 cells/well) were exposed to 1% O2 (Airgas) in a humidified hypoxia chamber (Billups-Rothenberg) in 37° C. for 48 h prior to drug exposure for 48 h. Treated cells were then pulsed using an aliquot of 1 μCi of [^3H]-thymidine (Perkin Elmer) per well for an additional 6 h. Radiolabelled cells were harvested onto a printed Filtermat A glass fiber filter (Perkin Elmer) using a Tomtec Harvester 96 Mach III M. Betaplate Scint (Perkin Elmer) scintillation fluid was added to radiolabelled filters followed by scintillation counting on Microbeta2 LumiJET Microplate Counter (Perkin Elmer).
A general note: Dividing cells build labelled thymidine or BrdU into new DNA.

Assay [3] deals with SW1990. The assay can be described thus: XTT viability assay, SW1990. Conditions: Homo sapiens, Pancreatic Cancer. Type of assay: cell-based.
From the text: as §1, §2

The test system of assay [4] is MDA-MB-453. The assay can be described thus: XTT viability assay, MDA-MB-453. Type of assay: cell-based. Conditions: Homo sapiens; Breast Cancer, MDA-MB-453, XTT.
From the text: as §1, §2
In general terms: Tetrazolium assays rely on reduction of a dye to a coloured formazan, in cell work by metabolically active cells.

In assay [5] the test system is NCI-H1299. The assay can be described thus: XTT viability assay, NCI-H1299. Type of assay: cell-based. The settings on record: Homo sapiens, Lung Cancer.
From the text: as §1, §2

Assay [6] has as its system BxPC3. Description: XTT viability assay, BxPC3. In kind it is cell-based. Conditions: Homo sapiens, BXPC-3, Pancreatic Cancer.
From the text: as §1, §2

The subject of assay [7] is HUVEC. Description: XTT viability assay, HUVEC. Type of assay: cell-based. The settings on record: Homo sapiens, Primary normal cells.
Assay [8] relates to SK-BR-3. Description: XTT viability assay, SK-BR-3. Conditions: Homo sapiens; Breast Cancer, SK-BR-3, XTT. Type of assay: cell-based.
From the text: as §1, §2

Assay [9] relates to SCC-25. Description: XTT viability assay, SCC-25. Type of assay: cell-based. Conditions: Homo sapiens; Head and Neck Cancer, SCC-25, XTT.
From the text: as §1, §2

In assay [10] the test system is A253. Description: XTT viability assay, A253. In kind it is cell-based. Conditions: Homo sapiens, Head and Neck Cancer.
From the text: as §1, §2

For assay [11], the system named is Renal Proximal Tubule. The assay can be described thus: XTT viability assay, renal proximal tubule cells. In kind it is cell-based. Conditions: Homo sapiens, Primary normal cells.
From the text: as §1, §2

The subject of assay [12] is SK-Mel-1. Description: XTT viability assay, SK-Mel-1. Type of assay: cell-based. Conditions: Homo sapiens; Melanoma, SK-Mel-1, XTT.
From the text: as §1, §2

The test system of assay [13] is PC3 prostate cancer cells expressing firefly luciferase. Description: Experimental metastatic prostate cancer mouse model (PC3/ML/fluc, tail vein). The settings on record: for Median survival time: i.p. once daily for 30 days; for tumor cells by bioluminescence imaging: 1 mg/kg daily for 30 days. In kind it is in vivo. How it is done:
In vivo tumor xenograft assay. Animal experiments were performed following the protocols approved by the Johns Hopkins University Animal Care and Use Committee. The experimental murine model of human prostate cancer metastasis used in this study was generated as previously described. (Bhatnagar et al. (2014) Cancer Res. 74:5772-81) Briefly, four-to six-week-old, male NOD/SCID/IL2R^γnull (NSG, purchased from Animal Resources Core, JHU) were injected with a million PC3/ML/fluc cells via tail vein. Tumor formation was confirmed by bioluminescence imaging (BLI) using the IVIS Spectrum Imaging System (Caliper Life Sciences, Hopkinton, Mass.) three weeks after injection and the mice were given indicated doses of drug once daily (intraperitoneal injection) for 30 days. Tumor progression was then monitored weekly by BLI and survival monitored concurrently.

The test system of assay [14] is SK-Mel-3. Description: XTT viability assay, SK-Mel-3. Type of assay: cell-based. The settings on record: Homo sapiens, SK-MEL3; Melanoma, SK-Mel-3, XTT.
From the text: as §1, §2

The mark [15] stands for this setting: 1 mg/kg, days after initiation of treatment.

The IC50 is the midpoint of a concentration-inhibition curve. Turning to `CC(C)[C@]12O[C@H]1[C@@H]1O[C@]13[C@]1(O[C@H]1C[C@H]1C4=C(CC[C@@]13C)C(=O)OC4)[C@@H]2OC(=O)CCCO[C@@H]1OC(CO)[C@@H](O)C(O)C1O` (stereo in doubt) [Compound 1], the 50% inhibitory concentration (IC50) in assay [1] worked out at 7.13 ± 2.84 µM; in [2] it was 0.071 µM; in assay [3] it was 6.48 ± 2.79 µM; in [4] it was 0.53 ± 0.28 µM; in assay [5], 11.5 ± 5.51 µM; in assay [6] it was 5 ± 2.83 µM. Moreover, the IC50 was 3.98 ± 1.15 µM in assay [7]; 2.16 ± 1.59 µM in [8]; 1.63 ± 0.78 µM in assay [9]; 0.54 ± 0.4 µM in assay [10]; 5.94 ± 2.21 µM in assay [11]; 3.44 µM in [12]. This compound also displayed an IC50 in assay [14] of 0.44 ± 0.25 µM. Further, the “fold more potent against cancer cells in vitro than compound 10” value in assay [2] (in vitro) is reported as 4 fold. The Median survival time in assay [13] (0.25 mg/kg) came out at 46 days; in assay [13] (0.5 mg/kg) it was 76 days; in [13] (setting [15]), 84 days. The “tumor cells by bioluminescence imaging” value in assay [13] is on record as “undetectable levels of cancer cells two weeks after cessation of treatment”. The longest survival in assay [13] (1 mg/kg treatment group, versus 26 days for untreated group) stood at 86 days.

`CC(C)[C@]12O[C@H]1[C@@H]1O[C@]13[C@]1(O[C@H]1C[C@H]1C4=C(CC[C@@]13C)C(=O)OC4)[C@@H]2OC(=O)CCC(=O)O[C@@H]1OC(CO)[C@@H](O)C(O)C1O` (stereo partly shown) [Compound 10]: the half-maximal inhibitory concentration (IC50) in assay [1] was 4.12 ± 1.39 µM; in assay [2], 0.279 ± 0.000611 µM; in assay [3], 1.52 ± 0.33 µM; in [4], 0.53 ± 0.2 µM; in assay [5], 6.4 ± 2.43 µM; in [6], 4.15 ± 0.18 µM. Besides, the IC50 in assay [7] amounted to 1.37 ± 0.73 µM; in assay [8] it was 1.3 µM; in assay [9], 1.26 ± 0.99 µM; in assay [10] it was 0.71 ± 0.47 µM; in [11] it was 4.83 ± 1.54 µM; in [12], 1.29 µM. Besides, in [14], it took 0.42 ± 0.34 µM to reach half-maximal inhibition (IC50). The “tumor cells by bioluminescence imaging” value in [13] is given as “tumor cells were cleared by week 2 of treatment”. The same compound yielded a Median survival time in assay [13] (setting [15]) of 76 days.
